Target: WT PA channel (Bacillus anthracis, UniProt P13423)
Assay type: biochemical

Chain of WT PA channel (P13423 197-764 limits assumed): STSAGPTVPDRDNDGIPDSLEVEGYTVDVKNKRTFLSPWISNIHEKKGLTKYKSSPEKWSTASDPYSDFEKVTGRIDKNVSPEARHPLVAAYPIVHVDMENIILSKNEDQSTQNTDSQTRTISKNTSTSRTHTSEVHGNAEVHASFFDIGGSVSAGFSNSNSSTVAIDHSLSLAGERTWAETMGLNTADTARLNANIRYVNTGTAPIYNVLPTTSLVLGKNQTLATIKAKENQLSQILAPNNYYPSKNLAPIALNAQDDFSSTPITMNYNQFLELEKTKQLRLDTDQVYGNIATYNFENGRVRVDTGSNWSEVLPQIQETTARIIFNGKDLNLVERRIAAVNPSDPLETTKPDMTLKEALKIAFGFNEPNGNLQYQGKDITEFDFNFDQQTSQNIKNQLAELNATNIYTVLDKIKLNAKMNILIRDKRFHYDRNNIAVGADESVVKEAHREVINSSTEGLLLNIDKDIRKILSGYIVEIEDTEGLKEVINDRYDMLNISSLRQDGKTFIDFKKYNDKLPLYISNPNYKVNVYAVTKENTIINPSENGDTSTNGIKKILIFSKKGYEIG

Substance	duration of the I2/B oscillation among guest–host peptides	oscillation between conductance states during translocation	relative rate of dissociation to the cis side (in words) (pH 5.6)	translocation (in words) (pH 5.6)	translocation faster than D,L-Trp and D-Trp peptides (pH 5.6)	translocation faster than the HBS stapled peptide (pH 5.6)	dissociation to the cis side slower than L-Trp (pH 5.6)	translocation slower than L-Trp (pH 5.6)
L-Trp	longest durations	exhibited an oscillation between the I2 and B	dissociated the fastest	translocated the fastest	10 fold	~ 100 fold		
D-Trp			dissociated the slowest				~ 20 fold	~ 10 fold
